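These data come from cells grown in 96-well plates and exposed to compound for 48 hours at five concentrations. GI50 = concentration required for 50% inhibition of growth.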 Calls of active or inactive are those of the source. Rule as the data show it: active = GI50 up to about 1.1 µM and inactive = higher.
Legend:
Assay in all cases: growth of human tumour cells (NCI), 48 h
[1] = test system: OVCAR-4
[2] = test system: Malme-3M
[3] = test system: SNB-75
[4] = test system: NCI-H460
[5] = test system: OVCAR-8
[6] = test system: EKVX
[7] = test system: U-251
[8] = test system: UACC-257
[9] = test system: OVCAR-3
[10] = test system: COLO 205
[11] = test system: SF-295
[12] = test system: SNB-19
[13] = test system: CCRF-CEM
[14] = test system: UO-31
[15] = test system: LOX IMVI
[16] = test system: NCI-H23
[17] = test system: MOLT-4
[18] = test system: SK-OV-3
[19] = test system: SF-539
[20] = test system: SN12C

Measured: GI50

OC(c1ccc(Br)cc1)(c1cccs1)C1CC1 (centres undefined)
inactive: [1] 22.7 µM | [2] 20.5 µM | [3] 25.8 µM | [4] 22.4 µM | [5] 24.4 µM | [6] 31.3 µM | [7] 17.8 µM | [8] 27 µM | [9] 18.8 µM | [10] 19.2 µM | [11] 21.6 µM | [12] 41.1 µM | [13] 26.2 µM | [14] 26.7 µM | [15] 21.1 µM | [16] 22.4 µM | [17] 22.1 µM | [18] 36.4 µM | [19] 21.4 µM

CCOC(=O)/C(C#N)=C\c1ccc(N(CCC(=O)O)CCC(=O)O)c(I)c1
inactive: [1] > 10 µM | [2] > 10 µM | [3] > 10 µM | [20] > 10 µM | [4] > 10 µM | [5] > 10 µM | [6] > 10 µM | [8] > 10 µM | [10] > 10 µM | [11] > 10 µM | [12] > 10 µM | [13] > 10 µM | [14] > 10 µM | [15] > 10 µM | [16] > 10 µM | [17] > 10 µM | [18] > 10 µM | [19] > 10 µM

OCC(O)COc1ccc(Br)cc1 (centres undefined)
inactive: [1] > 100 µM | [2] > 100 µM | [3] > 100 µM | [20] 60.3 µM | [4] > 10 µM | [5] > 100 µM | [6] > 100 µM | [7] > 100 µM | [8] > 100 µM | [9] > 100 µM | [10] > 100 µM | [11] > 100 µM | [12] > 100 µM | [13] > 100 µM | [14] > 100 µM | [15] > 100 µM | [16] > 100 µM | [18] > 100 µM | [19] > 100 µM

COc1ccc(OC)c(/C=C/C(=O)C(C)(C)C)c1
inactive: [1] 22.6 µM | [2] 17.9 µM | [3] 26 µM | [20] 21 µM | [4] 34.8 µM | [5] 15.7 µM | [6] 16.4 µM | [7] 20 µM | [9] 23.3 µM | [10] 19 µM | [11] 25 µM | [12] 17.2 µM | [13] 14.3 µM | [15] 21.1 µM | [16] 19.6 µM | [17] 13.6 µM | [18] 37.2 µM | [19] 19.8 µM
